Assay results as given in ChEMBL document CHEMBL3507680, “University of Dundee, Gates Library screen for HepG2 cell viability”.

Assay: Human HepG2 cell viability assay in 384 well format
Type: toxicity, cell-based
Parameters: dose 125 nL, time 70.5 hour; concentration not given beside the values
Settings: HepG2 cells, read-out: Inhibition

Compound	cytotoxicity at 70.5 h [%]
CCOCCCNC(=O)C(NC(=O)Cc1cccs1)c1ccc(C)cc1 (configuration not stated)	-2.89
CCOC(=O)CCn1cnc2onc(-c3cc(OC)ccc3Cl)c2c1=O	-11
Cn1nnc(NCc2ccc(OCc3ccc(Cl)cc3)cc2)n1	-4.01
CCOc1cc(CNc2nnn(C)n2)ccc1OCc1ccc(Cl)cc1	-10.2
CCCn1nnc(NCc2ccccc2OCc2ccc(Cl)cc2)n1	-7.74
CCOC(=O)CCn1cnc2onc(-c3ccc(OC)cc3)c2c1=O	35.2
CCCc1ccc2oc(C(=O)N3CCN(CCOC)CC3)c(C)c2c1	-2.68
COC1CCN(S(=O)(=O)NCC2COc3ccccc3C2)CC1 (configuration not stated)	-4.76
Cc1nc2ccc(S(=O)(=O)Nc3c(C)nn(CC(=O)O)c3C)cc2s1	-10.8
Cc1ccnn1CCC(=O)N1C[C@H]2CC[C@@H]1CN(CC(=O)N(C)C)C2	-0.432
CCC[C@H]1CN(Cc2cc(C#N)n(C)c2C)C[C@@H]1N(C)C	-7.07
C/C=C(\C)CN1C[C@@H](NC(=O)c2ccc(F)c(F)c2)C[C@H]1C(=O)NCC	-12.2
Cc1cc(C)n(CC(C)NCc2nc(-c3cccnc3)no2)n1 (configuration not stated)	-6.9
Cc1nc(CN(C)Cc2cnc(N3CCOCC3)s2)no1	22.9
CCn1c(C2CCCN(Cc3cccc4cnccc34)C2)nn(C)c1=O (configuration not stated)	-7.71
CC(=O)Nc1ccc(C(=O)Nc2cnc3n2CCCC3)cc1C	5.91
O=C(CCc1cc2n(n1)CCNC2)NCCS(=O)(=O)N1CCCC1	-11.2
Cc1c[nH]c(CN2CC[C@@]3(O)CCN(C(=O)C4CCC4)C[C@H]3C2)n1	-1.74
COc1ncc(C2(O)CCN(Cc3ccccc3O)CC2)c(OC)n1	7.32
COCCc1ncc(CN2CCC(Oc3ccccc3C)CC2)cn1	-0.184
Cc1nc(-c2cccc(C(=O)O)c2)cc(C2CCN(C(C)C)C2)n1 (configuration not stated)	-2.07

Compound	cytotoxicity at 70.5 h [%]
Cc1cccnc1C(=O)N1CCCC(c2[nH]ncc2S(C)(=O)=O)C1 (configuration not stated)	0.897
Cc1cccnc1C(=O)N1CCCCC1c1[nH]ncc1S(C)(=O)=O (configuration not stated)	1.39
Cc1cnc(C(=O)N2CCCCC2c2[nH]ncc2S(C)(=O)=O)cn1 (configuration not stated)	3.44
Cc1nccc(CN2CC[C@H](Oc3cccc(F)c3)[C@@](C)(O)C2)n1	-3.99
Cc1nccn1-c1cccc(C2CCCN2S(=O)(=O)N(C)C)n1 (configuration not stated)	2.07
Cc1nc(C2CCCN2CC(=O)Nc2c(C)n[nH]c2C)no1 (configuration not stated)	39
COc1c(C2CCCN2C(=O)c2sc(C)nc2C)c(C)nn1C (configuration not stated)	10.6
COCc1cccc(CNC(=O)c2c(C)noc2C(C)C)c1	10.6
CC1CN(C)CCN1C(=O)c1ccn(-c2ccccc2)n1 (configuration not stated)	17.4
CC1CN(C)CCN1C(=O)c1cnn(-c2cccc(Cl)c2)c1 (configuration not stated)	-9.03
Cc1n[nH]c(C)c1NC(=O)CN1CCCC1c1noc(C(C)C)n1 (configuration not stated)	15.2
O=c1oc(-c2ccc(F)cc2)nn1CN1CCCCC1	-18.4
Cc1nc(-c2ccccc2)n(CC(=O)NC2CCCCC2)n1	-14.1
Cc1noc(C(C)C)c1C(=O)NCc1ccc(N(C)C)c(F)c1	-9.82
Cc1cc(CN2CCN(c3ccc4nncn4n3)C(C)C2)on1 (configuration not stated)	20
CCOc1ccc2cc(C(=O)N3CCn4c(CC)nnc4C3)[nH]c2c1	-8.2
Cc1nc(-c2ccccc2C)n(CC(=O)NC2CCCC2)n1	19
CCc1nnc2n1CCN(C(=O)c1cc3ccc(C)cc3[nH]1)C2	-12.2
CCc1nnc2n1CCN(C(=O)c1cc3c(F)cccc3[nH]1)C2	-6.74
CN1CCN(C2CCN(CCOc3ccccc3F)CC2)C1=O	-11.6
CCOc1ccc(CC(=O)N2CCCC(n3nc(C)nc3C)C2)cc1 (configuration not stated)	-5.27

Compound	cytotoxicity at 70.5 h [%]
COc1c(C2CCCN2C(=O)c2cscn2)c(C)nn1C (configuration not stated)	18.5
Cc1nc(C)n(C2CCCN(C(=O)COc3ccccc3)C2)n1 (configuration not stated)	-8.86
Cc1nc(C)n(C2CCCN(C(=O)CCOc3cccc(F)c3)C2)n1 (configuration not stated)	-6.19
Cc1ncc(CN2CCN(c3ccc4nncn4n3)C(C)C2)s1 (configuration not stated)	-11.1
COc1cccc(S(=O)(=O)NC(=O)CCC2CCCC2)c1	-8.64
COc1cccc(S(=O)(=O)NC(=O)COC2CCCCC2)c1	0.508
COCCc1noc(CN2CCCC2Cn2cccn2)n1 (configuration not stated)	-9.31
CCc1csc(C2CCCN(C(=O)c3ccc(=O)n(CC)n3)C2)n1 (configuration not stated)	-5.74
COCCc1noc(CN2CCCCC2Cn2cccn2)n1 (configuration not stated)	-11.6
CCN1N=C(C(=O)N2CCCC(c3nc(C)cs3)C2)CCC1=O (configuration not stated)	-2.03
CC(NC(=O)NCCNc1ccccn1)c1cccs1 (configuration not stated)	-1.83
CC(C)C(NC(=O)Nc1ccccn1)c1cccs1 (configuration not stated)	28.6
O=C1CN(c2ccc(CNC(=O)NCCO)cc2)CCN1	-5.73
CC1CCN(CCNC(=O)c2ccn(-c3ccccc3)n2)CC1	-6.14
COc1ccc(-n2ccc(C(=O)NCCN3CCC(C)CC3)n2)cc1	-5.24
COc1ccc(-n2ccc(C(=O)NCCN3CCCCC3)n2)cc1	-4.18
Cn1ccc(CN2CCC(OCc3ccccc3)CC2)cc1=O	21.5
CN(C)C(=O)c1cccc(CN2CCOC(Cn3cccn3)C2)c1 (configuration not stated)	-12.9
Cc1cnn(CC2CN(Cc3cccc(C(N)=O)c3)CCO2)c1 (configuration not stated)	-9.19
Cc1cnn(CC2CN(Cc3ccc(C(N)=O)cc3)CCO2)c1 (configuration not stated)	-7.11
Cc1cnn(CC2CN(Cc3cccc(OC(C)C)c3)CCO2)c1 (configuration not stated)	-5.62

Compound	cytotoxicity at 70.5 h [%]
Cc1cnn(CC2CN(Cc3cccnc3)CCO2)c1 (configuration not stated)	-6.35
Cc1cc(C[S+]([O-])CC(=O)NCc2ccccc2)no1 (configuration not stated)	-5.28
Cc1ccc(-c2nc(CNC3CCc4ncnn4C3)co2)cc1 (configuration not stated)	-9.15
O=C(Cc1cccc(O)c1)NCCCNC(=O)c1cccc(F)c1	-5.97
CC(C)c1nc(CN2CCCC2Cn2cccn2)no1 (configuration not stated)	-2.93
CCc1csc(C2CCCN(C(=O)c3ccco3)C2)n1 (configuration not stated)	17.1
COC(=O)c1cccc(S(=O)(=O)NC(=O)COC2CCCC2)c1	-11.9
Cc1cc2n(n1)CC(CNCc1ccc(OCC3CC3)nc1)CN2 (configuration not stated)	7.09
CCN(C(C)=O)c1nc(CN2CCCC2Cn2cncn2)cs1 (configuration not stated)	17.8
Cc1cnn(C2CN(Cc3nc(-c4ccccn4)no3)C2)c1	12.3
CN(Cc1noc(C(C)(C)C)n1)C1CCCN(c2cccnn2)C1 (configuration not stated)	44.8
CN(Cc1noc(C2CC2)n1)C1CCCN(c2cccnn2)C1 (configuration not stated)	0.945
CCC1CCCCN1Cc1ncc(C(C)(C)C)o1 (configuration not stated)	-7.2
O=C(c1ccc2nncn2c1)N1CCCC(n2ccnc2)C1 (configuration not stated)	-14.2
CCn1cnnc1CNC(=O)N1CCN(c2cccc(C)c2)CC1	-7.02
Cc1cc(C)n(CC2CN(CC(=O)NC3CCCCC3)CCO2)n1 (configuration not stated)	-9.27
Cc1cc(C)n(CC2CN(CCC(=O)NC3CCCCC3)CCO2)n1 (configuration not stated)	-9.5
Cc1cccc(-c2noc(CN3CC(n4cccn4)C3)n2)c1	-8.11
COc1ccc(CNC(C)Cn2cccn2)c(OC)c1OC (configuration not stated)	-7.21
